{
  "source": "patent US7083940B2",
  "about": "“Pregnancy-associated plasma protein-A2 (PAPP-A2)” (Como Biotech ApS, priority 2000, dated 2006)",
  "tested_on": "rIGFBP-5",
  "assay": "Ligand blotting with radiolabeled IGF-II, activity of PAPP-A2 against IGFBP-5",
  "type": "biochemical",
  "settings": "medium from cells transfected with pPA2",
  "procedure": "Medium from 293T cells transfected with empty vector (−), or cDNA encoding PAPP-A2 (pPA2) (+) was incubated with each of the six IGFBPs (BP1–BP6), and the activity was assessed by ligand blotting using radiolabeled IGF-II.\nLigand blotting (Conover et al., 1993, J Clin Invest 91, 1129–37) with radiolabeled IGF-II (Bachem) was used to assay for activity against IGFBP-1 (from HepG2 conditioned medium), rIGFBP-2 (GroPep), rIGFBP-3 (gift of D. Powell), rIGFBP-4 (Austral), rIGFBP-5 (gift of D. Andress), and rIGFBP-6 (Austral). […] Experiments were carried out with media from cells transfected with pPA2 or empty vector.",
  "data": [
    {"substance": "PAPP-A2: recombinant pregnancy-associated plasma protein-A2, SEQ ID NO:2, metzincin metalloproteinase expressed in 293T cells", "values": [
      {"measurement": "Dependence of cleavage on IGF", "value": "independent of the presence of IGF"}
    ]}
  ]
}
